Source: patent US11746086B2, “Non-aggregating heptamethine cyanine fluorophores for in vivo imaging” (The USA, as represented by the Secretary, Department of …, priority 2018, dated 2023)

What was measured:
MDA-MB-468 tumor = experiment: Dose lowering in vivo imaging study (10, 5, 1 μg) of DOL 4 conjugates; parameters: species or system athymic nude mice; settings: for tumor signal visualization over dosage range: DOL 4, 10, 5 and 1 μg tail injection
Procedure: (§1) Animal Tumors Models: In vivo studies were performed according to the Frederick National Laboratory for Cancer Research (Frederick, Md.) Animal Care and Use committee guidelines. Fluorescence was longitudinally monitored employing the IVIS spectrum imager (PerkinElmer Inc, Waltham, Mass.). Imager specific Living Image software was used for image acquisition and analysis. Mice body temperature were maintained constant at 37° C. during the imaging procedure with a heated pad located under the anesthesia induction chamber, imaging table, and post procedure recovery cage. All mice were anesthetized in the induction chamber with 3% isoflurane with filtered (0.2 μm) air at 1 liter/minute flow rate for 3-4 minutes and then modified for imaging to 2% with O2 as a carrier with a flow rate of 1 liter/minute. Static 2D images were acquired with the following parameters: excitation filter 745±15 nm, emission filter 800±10 nm, f/stop2, medium binning (8×8) and auto exposure (typically 1-60 seconds). 5-week old female athymic nude mice were purchased from Charles River Laboratories International, Inc. (NCI-Frederick). MDA-MB-468 (5×10^6) in 100 μL of Hanks Balanced Salt Solution were injected the mice subcutaneously in the right dorsum. The size of the tumors were continuously monitored to reach 4-6 mm. In vivo studies were initiated 10 days post cell injection of the mice.
(§2) Data Analysis: Images were obtained using a Pearl Imager (LI-COR) using 800 nm fluorescence channel. Using white light images, the tumors were identified, and regions of interest (ROIs) were located on the tumors, livers, and necks (used as background). The intensities of ROIs were measured based on the total radiance efficiency using fluorescence images and analyzed using Living Image software. Statistics (unpaired t-test) were carried out using Prism 8.
A dose lowering study with the goal of defining an optimal dose for FNIR-Tag conjugates was performed. Three doses, 10 μg, 5 μg, and 1 μg, which span the lower end of the doses used in prior studies, were examined. […]

[1] = Photochemical properties of panitumumab conjugates (absorption/emission spectra, H-aggregation, absolute quantum yield); type: physicochemical
Procedure: (§3) Absolute quantum yields (ΦF) were measured using a Quantaurus-QY spectrometer (Hamamatsu, model C11374). This instrument is equipped with an integrating sphere to determine photons absorbed and emitted by a sample. Measurements were carried out at a concentration of 500 nM in PBS (50 mM, pH 7.4) and self-absorption corrections were performed using the instrument software.
The photochemical properties of these conjugates were analyzed by several methods. Absorption/emission curves were obtained following dilution in 50 mM PBS to yield solutions that were 500 nM in protein concentration. […] A 3 h incubation time at room temperature elapsed prior to acquisition. Conjugates were diluted 40-fold into 1:1 MeOH:50 mM PBS and their absorption spectra were recorded on a plate reader using a 384 well plate transparent in the 280 nm range (i.e. UV Co-Star μclear 384 well plate from Greiner Bio-One).
To examine the relative brightness of these conjugates on an in vivo system, phantom imaging on the Perkin-Elmer IVIS® imaging system was performed.

EGFR+ tumors = experiment: In vivo fluorescence imaging of panitumumab conjugates, 100 μg dose; parameters: species or system athymic nude mice; settings: for tumor radiance output relative to IRDye-800CW conjugate: 48 h (peak accumulation), normalized to tumor size
Procedure: as §1, §2
Reduced dye aggregation was speculated to impact the pharmacokinetics. […] Fluorescence dorsal and ventral images were recorded at 0 h, 10 min, 24 h, 48 h, and 1 week post-injection. […]

[2] = Photostability (photooxidation kinetics) of free dyes under 780 nm LED; type: physicochemical; settings: for photooxidation k: 1 μM in 50 mM PBS pH 7.4, 780 nm+/−20 nm LED, 20 mW/cm^2
Procedure: Stock solutions of 5 mM FNIR-Tag and IRDye®-800CW in DMSO were diluted into 50 mM PBS (pH=7.4) to afford 1 μM solutions. The photostability was determined using a procedure described previously using a 780 nm+/−20 nm LED at a light intensity of 20 mW/cm^2 (Nani et al., ACS Central Sci 2017, 3:329). […] As expected both of the free dyes have similar photostability.

[3] = Absorption/emission maxima, molar absorption coefficient, absolute quantum yield and brightness of free dyes; type: physicochemical; settings: free dye; for ε / λabs / ΦF (PBS): PBS; for ΦF (PBS): absolute quantum yield; for ε × ΦF: brightness in PBS; for Relative brightness (PBS): relative to FNIR-Tag = 1.0; for λem: λexcitation = 740 nm
Procedure: Determination of Molar Absorption Coefficients and Absolute Fluorescence Quantum Yields: Molar absorption coefficients (c) were determined in PBS (pH 7.4) or 1:1 (v/v) MeOH/PBS (pH 7.4) using Beer's law, from plots of absorbance vs. concentration. Measurements were performed in 10 mm path length quartz cuvettes (Hellma 111-QS), maintained at 25° C., with absorbance at the highest concentration≤0.20.
as §3
Properties of FNIR-Tag and IRDye®-800CW are shown below in Table 1. […] Both dyes have similar absorption coefficients (ε), absolute quantum yields (ΦF) and brightness (ε×ΦF) in PBS solution, with free IR-800CW being slightly brighter

[4] = panitumumab conjugates DOL 1, 2, 4, 500 nM in PBS

Compound	tumor signal visualization over dosage range (MDA-MB-468 tumor)	absolute quantum yield of fluorescence (ΦF), end of decrease with increased labeling ([1]; antibody conjugates, high labeling, PBS, 250 nM effective dye concentration) [%]	absolute quantum yield of fluorescence (ΦF), start of decrease with increased labeling ([1]; antibody conjugates, low labeling, PBS, 250 nM effective dye concentration) [%]	quantum yield of the free dye ([1]; free dye) [%]	H-aggregate peak in the absorption spectrum (~705 nm) [1, 4]	tumor radiance output relative to IRDye-800CW conjugate (EGFR+ tumors; DOL 2, 100 μg tail injection) [×]	tumor radiance output relative to IRDye-800CW conjugate (EGFR+ tumors; DOL 4, 100 μg tail injection) [×]	photooxidation k [2]	half-life at 1 μM ([2]; buffer, pH 7.4) [min]	ε [3]	λabs [3] [nm]	ΦF (PBS) [3]	ε × ΦF [3]	Relative brightness (PBS) [3]	fluorescence intensity (total radiance normalized to tumor size) compared with IRDye-800CW conjugates (MDA-MB-468 tumor; DOL 4, 10, 5, 1 μg, 4 h to 7 days)	absolute quantum yield of fluorescence (ΦF) with increasing labeling density ([1]; conjugates DOL 1, 2, 4, PBS, 250 nM effective dye concentration) [%]	fluorescent emission as function of labeling density [1, 4]	liver uptake (liver-to-background ratio) compared with FNIR-Tag conjugates (EGFR+ tumors; 100 μg, DOL 2 and 4, 10 min time point)	λem [3]	λem ([3]; listed as IR-800CW) [nm]
IRDye®-800CW conjugates: panitumumab labeled with IRDye®-800CW-NHS, comparator conjugates [reference compound]	could not be visualized below 5 μg	~2.5	~9																	
COCCOCCOCCN1/C(=C/C=C2\CCCC(/C=C/C3=[N+](CCOCCOCCOC)c4ccc(S(=O)(=O)[O-])cc4C3(C)C)=C2OCCC[N+](C)(C)CCCC(=O)ON2C(=O)CCC2=O)C(C)(C)c2cc(S(=O)(=O)[O-])ccc21 [FNIR-Tag]				10	does not form a significant H-aggregate band	2.5	7.1	0.04274	16.2	200 000 M^−1 · cm^−1	765	0.099	19 800	1.0						
FNIR-Tag-panitumumab conjugates	Clearly discernable signals														significantly higher fluorescence intensity	~10	increases with higher labeling density			
CC1(C)C(=CC=C2CCCC(C=CC3=[N+](CCCCCC(=O)[O-])c4ccc(S(=O)(=O)[O-])cc4C3(C)C)=C2Oc2ccc(S(=O)(=O)[O-])cc2)N(CCCCS(=O)(=O)[O-])c2ccc(S(=O)(=O)[O-])cc21.[Na+].[Na+].[Na+].[Na+] [IRDye®-800CW]								0.04463		240 000 M^−1 · cm^−1	774	0.087	23 490	1.2			nearly constant across the range of labeling density	significantly higher liver uptake	795ª nm	795
